{"source": "patent US6204220A", "about": "“Substituted 2-oxo-3-alkynoic acids and methods of use thereof” (Rutgers, The State University of New Jersey, priority 1999, dated 2001)", "key": {"E1 [1]": {"biological_target": "T1, E1 (Escherichia coli, UniProt P0AFG8)", "T1 construct": "made in house; host or cells: resolved from PDHc expressed in E. coli JRG1342", "T1 sequence (P0AFG8 2-887)": "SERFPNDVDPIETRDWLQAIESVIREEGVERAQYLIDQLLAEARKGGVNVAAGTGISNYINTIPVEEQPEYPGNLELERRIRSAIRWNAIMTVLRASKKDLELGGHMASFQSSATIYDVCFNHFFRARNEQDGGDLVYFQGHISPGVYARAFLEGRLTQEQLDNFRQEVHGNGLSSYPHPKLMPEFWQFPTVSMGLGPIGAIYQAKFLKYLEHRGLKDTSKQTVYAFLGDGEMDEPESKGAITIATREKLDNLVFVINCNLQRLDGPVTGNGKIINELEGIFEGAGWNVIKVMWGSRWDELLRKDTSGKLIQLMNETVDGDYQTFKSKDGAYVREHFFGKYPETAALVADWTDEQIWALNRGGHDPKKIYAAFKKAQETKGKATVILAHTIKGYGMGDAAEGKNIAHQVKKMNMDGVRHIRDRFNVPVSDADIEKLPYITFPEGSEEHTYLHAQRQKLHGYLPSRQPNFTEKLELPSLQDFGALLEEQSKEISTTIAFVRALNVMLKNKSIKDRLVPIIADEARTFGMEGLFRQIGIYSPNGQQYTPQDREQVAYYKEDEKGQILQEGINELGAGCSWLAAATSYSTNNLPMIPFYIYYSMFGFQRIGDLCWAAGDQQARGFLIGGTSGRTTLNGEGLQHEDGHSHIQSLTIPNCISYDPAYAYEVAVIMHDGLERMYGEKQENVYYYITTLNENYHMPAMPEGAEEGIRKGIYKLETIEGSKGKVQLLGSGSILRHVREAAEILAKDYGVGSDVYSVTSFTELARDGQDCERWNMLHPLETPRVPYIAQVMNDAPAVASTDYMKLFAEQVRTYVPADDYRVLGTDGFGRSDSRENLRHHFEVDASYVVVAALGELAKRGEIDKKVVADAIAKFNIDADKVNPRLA", "assay": "Fluorescence measurements on binding to E1", "parameters": "species or system E. coli", "description": "Fluorescence measurements on the binding of 2-oxo-3-butynoic acid to E1. The fluorescence spectrum of apo-E1 (enzyme having no activity in the absence of ThDP) was measured using the SLM8100 spectrofluorimeter at 25° C. The excitation wavelength was 295 nm and the emission spectrum, presumably due to tryptophan, was recorded in the 300-450 nm range in a 1 mL or 3 mL quartz cuvette. The concentration of apo-E1 was 0.05-0.175 mg/mL in 20 mM KH2 PO4 buffer, pH 7.5. The excitation and emission monochromator slit widths were 4 nm. The V.3.0 software and KaleidaGraph computer program were used for data processing. The emission maximum for tryptophan (λ=335 nm) was determined by fitting the points from the peak using the KaleidaGraph computer program."}, "[2]": {"biological_target": "T2, C259S variant of 1-lip PDHc (Escherichia coli, UniProt P0AFG8, C260S)", "T2 construct": "made in house; host or cells: E. coli JRG1342 (PDHc null), Ptac plasmid pGS457", "T2 sequence (P0AFG8 2-887 C260S)": "as the sequence (P0AFG8 2-887) above, with C259S counted along it", "assay": "Inactivation of C259S variant of 1-lip PDHc", "type": "biochemical, E. coli", "details": "butynoic acid at 1 mM", "description": "FIG. 6. Inactivation of 1-lip PDHc and its C259N and C259S variants by 2-oxo-3-butynoic acid. 1-lip PDHc (0.162 mg/mL) or the C259N and C259S variants of 1-lip PDHc (0.162 mg/mL) in 20 mM KH2 PO4 buffer, pH 7.5, containing 1 mM ThDP and 5 mM MgCl2 were incubated in the absence (curve 1: 1-lip PDHc and C259N variant) or in the presence of 1 mM of 2-oxo-3-butynoic acid (curve 2: the C259N variant; curve 3: 1-lip PDHc and the C259S variant) in a total volume 0.5 mL in the dark. At different times, aliquots of 50 μL were withdrawn and the overall activity was measured as described in FIG. 1A.\nBacterial strains and plasmids for PDHc. Derivatives of the PDHc null strain, E. coli JRG1342 contained Ptac expression plasmids encoding PDHc with E2 chains bearing three lipoyl domains (3-lip PDHc; pGS523, the wild type parental complex), or a single lipoyl domain in each E2 subunit (1-lip PDHc; pGS501), and variant 1-lip PDH complexes with mutations in the E1 gene leading to C259S (pGS457) and C259N (pGS596) substitutions (Machado et al., 1992; Machado, 1993).\nInactivation of 1-lip and 3-lip PDH complexes and resolved E1 component by 2-oxo-3-alkynoic acids. […]"}, "E1 [3]": {"biological_target": "T1, E1", "assay": "Quantification of sulfhydryl groups in E1 (DTNB titration)", "parameters": "species or system E. coli", "description": "Quantification of the fraction of sulfhydryl groups in E1 modified by 2-oxo-3-butynoic acid. The concentration of titratable sulfhydryl groups was determined by treating samples (1 mL) containing E1 (3.02×10^-6 M) in 0.05 M KH2 PO4 buffer, pH 8.0 and 8 M urea, with small aliquots of 5,5'-dithiobis-(2-nitrobenzoic acid) from a 1 mM stock solution, and comparing the absorbencies at 412 nm with those obtained with freshly prepared cysteine solutions in the range 10×10^-6 -50×10^-6 M. Protein concentrations were determined by the Bio-Rad method with bovine serum albumin as standard."}}, "note": "Values joined by “and” are separate entries in the source; they are usually repeats but may differ in a detail not shown here. Equal entries are not always repeated.", "data": [{"smiles": "C#CC(=O)C(=O)O", "note": "[2-oxo-3-butynoic acid, 2-Oxo-3-butynoic acid]", "values": [{"measurement": "decrease of fluorescence intensity", "setting": "E1 [1]; 0.033 mM inhibitor", "value": "about 35%"}, {"measurement": "decrease of fluorescence intensity", "setting": "E1 [1]; 0.1 mM inhibitor", "value": 66, "unit": "%"}, {"measurement": "decrease of fluorescence intensity of E1 at 335 nm", "setting": "E1 [1]; 0.11 mM, E1 0.173 mg/ml, ThDP 0.2 mM, MgCl2 1 mM", "value": "about 66%"}, {"measurement": "first-order rate constant of fluorescence intensity decrease, slow phase", "setting": "E1 [1]; absence of added ThDP, 0.11 mM", "value": 0.042, "unit": "min⁻¹"}, {"measurement": "inactivation of C259S variant", "setting": "[2]", "value": "inactivated"}, {"measurement": "SH-groups remaining per monomer", "setting": "E1 [3]; E1 reacted to residual activity of 10%, G-25, DTNB titration, 8 M urea", "value": "3.83±0.18", "unit": "SH-groups per monomer"}, {"measurement": "SH-groups modified per monomer / subunit", "setting": "E1 [3]; difference to untreated E1", "value": "1.3 SH-groups per monomer and 1.30±0.35 SH-groups per monomer"}]}]}
